Where a name gives a salt, the structure may show the parent alone.
The molecules below were run against T1, Rat brain protein farnesyltransferase (Rattus norvegicus, UniProt Q02293+Q04631) (assay: % inhibition of farnesylation, scintillation proximity assay with biotin-K Ras B fragment). Settings: Table 1; 1 × 10^-5 M.
T1 construct: Rat brain protein farnesyltransferase activity is measured; from tissue; host or cells: rat brain
Format: biochemical
Outline: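 Scintillation proximity read-out of farnesylation, using a biotinylated K Ras B fragment (0.1 mM final) in place of biotin-lamin. Enzyme purified from rat brain; results given as % inhibition.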

T1 sequence (Q02293 whole entry, the tested form may be a part, one chain of several): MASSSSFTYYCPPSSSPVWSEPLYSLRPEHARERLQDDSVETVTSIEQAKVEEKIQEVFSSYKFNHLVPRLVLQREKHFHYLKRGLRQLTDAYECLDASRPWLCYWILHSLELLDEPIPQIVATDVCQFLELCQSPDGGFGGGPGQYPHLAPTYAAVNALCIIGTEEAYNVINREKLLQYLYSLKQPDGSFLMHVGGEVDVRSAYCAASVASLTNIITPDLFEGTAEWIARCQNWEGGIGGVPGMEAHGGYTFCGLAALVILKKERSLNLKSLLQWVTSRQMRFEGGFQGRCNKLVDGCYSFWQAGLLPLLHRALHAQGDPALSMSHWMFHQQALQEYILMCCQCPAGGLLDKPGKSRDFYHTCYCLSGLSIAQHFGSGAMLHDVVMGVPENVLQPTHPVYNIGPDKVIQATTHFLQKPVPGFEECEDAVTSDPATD

| Structure (SMILES) | % inhibition at 1 × 10^-5 M |
| --- | --- |
| CSCC[C@H](NC(=O)c1ccc(CNc2cc(C)ns2)cc1-c1ccccc1)C(=O)O [Example 373] | 76% |
| CSCC[C@H](NC(=O)c1ccc(CNC(CO)Cc2ccccc2)cc1-c1ccccc1)C(=O)O (some centres unmarked) [Example 714] | 56% |

Next, values leading:

| % inhibition at 1 × 10^-5 M | Structure (SMILES) |
| --- | --- |
| 40% | COc1ccc(Br)c(C(=O)Nc2ccc(C(=O)N[C@@H](CCSC)C(=O)O)c(-c3ccccc3)c2)c1 [Example 754] |
| 40% | CSCC[C@H](NC(=O)c1ccc(CNc2cccc(C)c2)cc1-c1ccccc1)C(=O)O [Example 674] |
| 46% | CCN(Cc1ccc(C(=O)N[C@@H](CCSC)C(=O)O)c(-c2ccccc2)c1)Cc1cc([N+](=O)[O-])ccc1O [Example 711] |
| 45% | CSCC[C@H](NC(=O)c1ccc(CNc2cc(C(=O)O)cc(C(=O)O)c2)cc1-c1ccccc1)C(=O)O [Example 710] |
| 61% | COc1ccc(NCc2ccc(C(=O)N[C@@H](CCSC)C(=O)O)c(-c3ccccc3)c2)cc1 [Example 690] |

Same assay, conditions: Table 2; 1 × 10^-6 M

| Structure (SMILES) | % inhibition at 1 × 10^-6 M |
| --- | --- |
| CSCC[C@H](NC(=O)c1ccc(CN(C(C)C)C2(CC3CCCCC3)CC2)cc1-c1ccccc1C)C(=O)O [Example 326] | 91% |
| CSCC[C@H](NC(=O)c1ccc(NCC(CO)(Cc2ccccc2)Cc2ccccc2)cc1-c1ccccc1C)C(=O)O [Example 475] | 21% |
| CSCC[C@H](NC(=O)c1ccc(CCCC(=O)c2ccc3ccccc3c2)cc1-c1ccccc1C)C(=O)O [Example 473] | 96% |

Next, values leading:

| % inhibition at 1 × 10^-6 M | Structure (SMILES) |
| --- | --- |
| 32% | CSCC[C@H](NC(=O)c1ccc(NC(=O)C[C@H]2C[C@@H](C(C)=O)C2(C)C)cc1-c1ccccc1)C(=O)O [Example 751] |
| 95% | CSCC[C@H](NC(=O)c1ccc(NCC(CO)CC2CCCCC2)cc1-c1ccccc1C)C(=O)O (some centres unmarked) [Example 479] |
| 73% | CSCCC(NC(=O)c1ccc(CNC(CO)c2ccccc2)cc1-c1ccccc1)C(=O)O (centres unmarked) [Example 658] |
| 93% | CSCC[C@H](NC(=O)c1ccc(C=CCc2ccc3ccccc3c2)cc1-c1ccccc1C)C(=O)O [Example 496] |

Same assay, conditions: Table 3; 1 × 10^-7 M

| Structure (SMILES) | % inhibition at 1 × 10^-7 M |
| --- | --- |
| CCS(=O)(=O)C[C@H](CC1CCCCC1)NCc1ccc(C(=O)N[C@@H](CCS(C)(=O)=O)C(=O)O)c(-c2ccccc2C)c1 [Example 621] | 98% |

Same assay, conditions: Table 4; 1 × 10^-8 M

| Structure (SMILES) | % inhibition at 1 × 10^-8 M |
| --- | --- |
| CSCC[C@H](NC(=O)c1ccc(CN[C@@H](CC2CCCCC2)C(=O)N2CCCCC2)cc1-c1ccccc1C)C(=O)O [Example 887] | 92% |
| CSCC[C@H](NC(=O)c1ccc(CN(C(C)=O)C(CC2CCCCC2)CC2CCCCC2)cc1-c1ccccc1C)C(=O)O [Example 909] | 79% |

Same assay, conditions: read-out: % inhibition at 0.01 μM (**); Table 6; ** footnote 0.01 μM (title: 0.01 mM)

| Structure (SMILES) | inhibition at 0.01 µM |
| --- | --- |
| CSCC[C@H](NC(=O)c1ccc(CO[C@@H](CC2CCCCC2)C(=O)N2CCCCC2)cc1-c1ccccc1C)C(=O)O [Example 1052, N-[4-(3-cyclohexyl-N-piperidin-1-ylpropion-2-yloxymethyl)-2-(2-methylphenyl)benzoyl]methionine, lithium salt] | 91% |
| CSCC[C@H](NC(=O)c1ccc(COCc2ccc(C3CCCCC3)o2)cc1-c1ccccc1C)C(=O)O [Example 1090, [4-(2-(5-cyclohexylfuranyl)methoxymethyl)-2-(2-methylphenyl)-benzoyl]methionine, lithium salt] | 81% |

Same assay, conditions: read-out: % inhibition at 1 × 10^-6 M; Table 2; 1 × 10^-6 M

| Structure (SMILES) | inhibition at 1 µM |
| --- | --- |
| CSCC[C@H](NC(=O)c1ccc(COc2nc3ccccc3s2)cc1-c1ccccc1C)C(=O)O [Example 321, [4-(2-benzothiazolyloxymethyl)-2-(2-methylphenyl)benzoyl]methionine] | 90% |
| CSCC[C@H](NC(=O)c1ccc(COCc2ccc(-c3ccc(F)cc3)o2)cc1-c1ccccc1C(F)(F)F)C(=O)O [Example 872, N-[4-(5-(4-fluorophenyl)furan-2-ylmethoxymethyl)-2-(2-trifluoromethylphenyl)benzoyl]methionine Lithium salt] | 74% |

Second part, the molecule after the results:

| inhibition at 1 µM | Structure (SMILES) |
| --- | --- |
| 22% | CSCC[C@H](NC(=O)c1ccc(COCC2CCCO2)cc1-c1ccccc1)C(=O)O (some centres unmarked) [Example 288, [4-(2-tetrahydrofurylmethyloxymethyl)-2-phenylbenzoyl]methionine] |
| 91% | CSCC[C@H](NC(=O)c1ccc(OC/C=C/c2ccccc2)cc1-c1ccccc1C)C(=O)O [Example 560, N-[4-(3-phenyl)prop-2-en-1-yloxy-2-(2-methylphenyl)benzoyl]methionine] |

Same assay, conditions: read-out: % inhibition at 1 × 10^-7 M

| Structure (SMILES) | inhibition at 0.1 µM |
| --- | --- |
| CSCC[C@H](NC(=O)c1ccc(CSCCc2ccccc2)cc1-c1ccccc1C)C(=O)O [Example 562, N-[4-(2-phenyl)ethylthiomethyl-2-(2-methylphenyl)benzoyl]methionine, lithium salt] | 95% |
| CSCC[C@H](NC(=O)c1ccc(COCc2ccc(-c3cccc(F)c3)o2)cc1-c1ccccc1C)C(=O)O [Example 436, N-[4-(5-(3-fluorophenyl)furan-2-ylmethoxymethyl)-2-(2-methylphenyl)benzoyl]methionine lithium salt] | 89% |
| CSCC[C@H](NC(=O)c1ccc(COCc2ccc(-c3cccc([N+](=O)[O-])c3)o2)cc1-c1ccccc1C)C(=O)O [Example 440, N-[4-(5-(3-nitrophenyl)furan-2-ylmethoxymethyl)-2-(2-methylphenyl)benzoyl]methionine lithium salt] | 92% |
| CSCC[C@H](NC(=O)c1ccc(COC(Cc2ccccc2)Cc2ccccc2)cc1-c1ccccc1C)C(=O)O [Example 522, N-[4-(1,3-diphenylpropan-2-yl)oxymethyl-2-(2-methylphenyl)benzoyl]methionine lithium salt] | 93% |

Same assay, conditions: read-out: % inhibition at 1 × 10^-7 M; Table 3; 1 × 10^-7 M

| Structure (SMILES) | inhibition at 0.1 µM |
| --- | --- |
| CSCC[C@H](NC(=O)c1ccc(COCc2ccc(-c3ccc(Cl)cc3)o2)cc1-c1ccccc1C)C(=O)O [Example 443, N-[4-(5-(4-chlorophenyl)furan-2-ylmethoxmethyl)-2-(2-methylphenyl)benzoyl]methionine lithium salt] | 97% |
| CSCC[C@H](NC(=O)c1ccc(CSc2ncnc3[nH]cnc23)cc1-c1ccccc1C)C(=O)O [Example 747] | 68% |

Same assay, conditions: read-out: % inhibition at 1 × 10^-8 M

| Structure (SMILES) | inhibition at 0.01 µM |
| --- | --- |
| CSCC[C@H](NC(=O)c1ccc(COC(Cc2ccccc2)c2cncs2)cc1-c1ccccc1C)C(=O)O (some centres unmarked) [Example 828, N-[4-(1-thiazol-5-yl-2-phenylethoxymethyl)-2-(2-methylphenyl)benzoyl]methionine lithium salt] | 87% |

Same assay, conditions: read-out: % inhibition at 1 × 10^-8 M; Table 4; 1 × 10^-8 M

| Structure (SMILES) | inhibition at 0.01 µM |
| --- | --- |
| CCCCC(Cc1ccccc1Cl)OCc1ccc(C(=O)N[C@@H](CCSC)C(=O)O)c(-c2ccccc2C)c1 (some centres unmarked) [Example 943, N-[4-(1-(2-chlorophenyl)hexan-2-yloxymethyl)-2-(2-methylphenyl)benzoyl]methioninelithium salt] | 79% |
| CSCC[C@H](NC(=O)c1ccc(COCc2ccc(-c3ccc(N(C)C)cc3)o2)cc1-c1ccccc1C)C(=O)O [Example 821, N-[4-(5-(4-N,N-dimethylaminophenyl)furan-2-ylmethoxymethyl)-2-(2-methylphenyl)benzoyl]methionine lithium salt] | 75% |

— US6204293A, “Inhibitors of protein isoprenyl transferases” (University of Pittsburgh, priority 1998, dated 2001)
